According to ChEMBL document CHEMBL3860078, “Thioflavones as novel neuroprotective agents” (Bioorg Med Chem, 2016):
The source made the active and inactive calls. No cut-off for these calls is given here.

target: T1, Bcl2-associated agonist of cell death (Homo sapiens) (UniProt Q92934); test: Induction of BAD phosphorylation in human SH-SY5Y cells at 3 uM preincubated for 24 hrs followed by H2O2 addition for 1 hr by pathscan sandwich immunoassay; format: cell-based; conditions: not given
T1 sequence (whole entry): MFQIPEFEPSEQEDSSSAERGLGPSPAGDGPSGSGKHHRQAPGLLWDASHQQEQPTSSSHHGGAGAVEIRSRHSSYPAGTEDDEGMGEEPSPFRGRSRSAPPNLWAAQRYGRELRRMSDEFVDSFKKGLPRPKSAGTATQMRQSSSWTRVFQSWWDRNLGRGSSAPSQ

Which Activity does the source give for `Oc1ccc2c(=S)cc(-c3ccc(Br)cc3)oc2c1O` here?
The Activity was “Active”.

For `O=c1cc(-c2ccccc2)oc2c(O)c(O)ccc12` [7,8-DIHYDROXYFLAVONE], which Activity is on record?
Its Activity is “Active”.

With `Oc1ccc2c(=S)cc(-c3ccc(Cl)cc3)oc2c1O` as the compound, how does the Activity read?
Its Activity is “Active”.

system: not listed separately; test: Neuroprotective activity in human SH-SY5Y cells assessed as protection against H2O2-induced oxidative stress at 0.3 uM preincubated for 24 hrs followed by H2O2 addition for 1 hr measured after 17 hrs by MTT assay relative to control; format: functional, cell-based; conditions: not given

With `Oc1ccc2c(=S)cc(-c3ccc(Cl)cc3)oc2c1O` as the compound, how does the Activity read?
The Activity was greater than 70%.

For `N#Cc1ccc(-c2cc(=S)c3ccc(O)c(O)c3o2)cc1`, which Activity is on record?
Its Activity is greater than 70%.

target: Mitogen-activated protein kinase; ERK1/ERK2 (Homo sapiens) (UniProt P27361+P28482); test: Induction of ERK1/2 phosphorylation in human SH-SY5Y cells at 3 uM preincubated for 24 hrs followed by H2O2 addition for 1 hr by pathscan sandwich immunoassay; format: cell-based; conditions: not given
Sequence (P27361 whole entry, looked up): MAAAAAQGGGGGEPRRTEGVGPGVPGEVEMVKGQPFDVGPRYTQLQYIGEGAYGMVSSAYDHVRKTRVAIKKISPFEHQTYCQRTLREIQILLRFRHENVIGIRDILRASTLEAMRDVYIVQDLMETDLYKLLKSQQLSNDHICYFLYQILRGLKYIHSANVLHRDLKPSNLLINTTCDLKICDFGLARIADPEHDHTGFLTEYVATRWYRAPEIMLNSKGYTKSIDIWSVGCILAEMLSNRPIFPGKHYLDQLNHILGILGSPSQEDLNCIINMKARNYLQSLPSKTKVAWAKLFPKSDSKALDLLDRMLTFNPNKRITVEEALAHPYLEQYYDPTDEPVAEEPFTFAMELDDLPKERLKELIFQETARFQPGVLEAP
Sequence (P28482 whole entry, looked up): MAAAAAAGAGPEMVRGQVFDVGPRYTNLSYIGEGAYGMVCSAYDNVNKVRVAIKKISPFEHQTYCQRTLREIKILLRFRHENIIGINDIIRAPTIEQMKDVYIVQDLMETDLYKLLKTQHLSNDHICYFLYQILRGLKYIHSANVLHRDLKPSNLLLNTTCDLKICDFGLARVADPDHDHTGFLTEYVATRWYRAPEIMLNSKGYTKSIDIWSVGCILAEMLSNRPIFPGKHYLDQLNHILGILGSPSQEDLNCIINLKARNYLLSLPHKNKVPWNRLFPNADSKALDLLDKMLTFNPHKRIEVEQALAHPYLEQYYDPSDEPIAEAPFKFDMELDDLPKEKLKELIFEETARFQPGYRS

For `Oc1ccc2c(=S)cc(-c3ccc(Cl)cc3)oc2c1O`, which Activity is on record?
Its Activity is “Active”.

With `N#Cc1ccc(-c2cc(=S)c3ccc(O)c(O)c3o2)cc1` as the compound, how does the Activity read?
Its Activity is “Active”.

system: not listed separately; test: Antioxidant activity assessed as DPPH free radical scavenging activity after 30 mins incubation in dark; format: functional; conditions: not given

With `O=C1O[C@H]([C@@H](O)CO)C(O)=C1O` [ASCORBIC ACID] as the compound, how does the IC50 read?
The IC50 was 330 µM.

system: not listed separately; test: Neurotoxicity against human SH-SY5Y cells assessed as reduction in cell viability at 3 to 10 uM after 24 hrs by MTT assay; format: toxicity, cell-based; conditions: not given

For `O=c1cc(-c2ccccc2)oc2c(O)c(O)ccc12` [7,8-DIHYDROXYFLAVONE], which Activity is on record?
Its Activity is “Non-Toxic”.

With `Oc1cc(O)c2c(=S)cc(-c3ccc(O)c(O)c3)oc2c1` as the compound, how does the Activity read?
The Activity was “Non-Toxic”.

For `O=c1cc(-c2ccc(F)cc2)oc2c(O)c(O)ccc12`, which Activity is on record?
The Activity was “Non-Toxic”.

With `Oc1ccc2c(=S)cc(-c3ccc(Cl)cc3)oc2c1O` as the compound, how does the Activity read?
Its Activity is “Non-Toxic”.

Which Activity does the source give for `N#Cc1ccc(-c2cc(=S)c3ccc(O)c(O)c3o2)cc1` here?
Its Activity is “Non-Toxic”.

Which Activity does the source give for `Oc1ccc2c(=S)cc(-c3ccc(F)cc3)oc2c1O` here?
The Activity was “Non-Toxic”.

For `O=c1cc(-c2ccc(Br)cc2)oc2c(O)c(O)ccc12`, which Activity is on record?
Its Activity is “Non-Toxic”.

target: Proline-rich AKT1 substrate 1 (Homo sapiens) (UniProt Q96B36); test: Induction of PRAS40 phosphorylation in human SH-SY5Y cells at 3 uM preincubated for 24 hrs followed by H2O2 addition for 1 hr by pathscan sandwich immunoassay; format: cell-based; conditions: not given

With `Oc1ccc2c(=S)cc(-c3ccc(Cl)cc3)oc2c1O` as the compound, how does the Activity read?
Its Activity is “Active”.

system: not listed separately; test: Metal chelating activity assessed as Fe2+-compound complex fromation at 3 uM incubated for 5 mins in presence of ferrous chloride hexahydrate followed by ferrozine addition measured after 10 mins; format: physicochemical; conditions: not given

For `Oc1ccc2c(=S)cc(-c3ccc(Br)cc3)oc2c1O`, which Activity is on record?
Its Activity is 4.4%.

For `O=c1cc(-c2ccccc2)oc2c(O)c(O)ccc12` [7,8-DIHYDROXYFLAVONE], which Activity is on record?
The Activity was 3.7%.

With `Oc1ccc2c(=S)cc(-c3ccc(Cl)cc3)oc2c1O` as the compound, how does the Activity read?
Its Activity is 5%.

For `O=c1cc(-c2ccc(Cl)cc2)oc2c(O)c(O)ccc12`, which Activity is on record?
Its Activity is 3.7%.

For `N#Cc1ccc(-c2cc(=S)c3ccc(O)c(O)c3o2)cc1`, which Activity is on record?
The Activity was 3.9%.

With `O=C(O)CN(CCN(CC(=O)O)CC(=O)O)CC(=O)O` [EDETIC ACID] as the compound, how does the Activity read?
Its Activity is 6.9%.

For `O=c1cc(-c2ccc(O)c(O)c2)oc2cc(O)cc(O)c12` [LUTEOLIN], which Activity is on record?
Its Activity is 3.4%.

system: SH-SY5Y; test: Induction of AMPKalpha phosphorylation in human SH-SY5Y cells at 3 uM preincubated for 24 hrs followed by H2O2 addition for 1 hr by pathscan sandwich immunoassay; format: cell-based; conditions: not given

Which Activity does the source give for `Oc1ccc2c(=S)cc(-c3ccc(Cl)cc3)oc2c1O` here?
Its Activity is “Active”.

For `N#Cc1ccc(-c2cc(=S)c3ccc(O)c(O)c3o2)cc1`, which Activity is on record?
The Activity was “Active”.

system: not listed separately; test: Metal chelating activity assessed as Fe2+-compound complex fromation incubated for 5 mins in presence of ferrous chloride hexahydrate followed by ferrozine addition measured after 10 mins; conditions: not given

Which IC50 does the source give for `O=C(O)CN(CCN(CC(=O)O)CC(=O)O)CC(=O)O` [EDETIC ACID] here?
Its IC50 is 42 µM.

system: not listed separately; test: Neurotoxicity against human SH-SY5Y cells assessed as reduction in cell viability at 10 uM after 24 hrs by MTT assay; format: toxicity, cell-based; conditions: not given

For `Oc1ccc2c(=S)cc(-c3ccc(Br)cc3)oc2c1O`, which Activity is on record?
The Activity was 52%.

system: not listed separately; test: Antioxidant activity assessed as DPPH free radical scavenging activity after 30 mins incubation in dark by UV-Vis spectrophotometric analysis; format: functional; conditions: not given

With `O=c1cc(-c2ccccc2)oc2c(O)c(O)ccc12` [7,8-DIHYDROXYFLAVONE] as the compound, how does the IC50 read?
The IC50 was 15.5 µM.

system: not listed separately; test: Antioxidant activity assessed as DPPH free radical scavenging activity at 3 uM after 30 mins incubation in dark; format: functional; conditions: not given

With `Oc1ccc2c(=S)cc(-c3ccc(Br)cc3)oc2c1O` as the compound, how does the Activity read?
The Activity was 1.6%.

With `O=c1cc(-c2ccccc2)oc2c(O)c(O)ccc12` [7,8-DIHYDROXYFLAVONE] as the compound, how does the Activity read?
Its Activity is 1.4%.

For `Oc1ccc2c(=S)cc(-c3ccc(Cl)cc3)oc2c1O`, which Activity is on record?
Its Activity is 1.7%.

Which Activity does the source give for `O=c1cc(-c2ccc(Cl)cc2)oc2c(O)c(O)ccc12` here?
The Activity was 1.4%.

With `N#Cc1ccc(-c2cc(=S)c3ccc(O)c(O)c3o2)cc1` as the compound, how does the Activity read?
The Activity was 1.3%.

For `O=C1O[C@H]([C@@H](O)CO)C(O)=C1O` [ASCORBIC ACID], which Activity is on record?
Its Activity is 1.3%.

With `O=c1cc(-c2ccc(O)c(O)c2)oc2cc(O)cc(O)c12` [LUTEOLIN] as the compound, how does the Activity read?
Its Activity is 1.9%.

target: Serine/threonine-protein kinase mTOR (Homo sapiens) (UniProt P42345); test: Induction of mTOR phosphorylation in human SH-SY5Y cells at 3 uM preincubated for 24 hrs followed by H2O2 addition for 1 hr by pathscan sandwich immunoassay; format: cell-based; conditions: not given

For `Oc1ccc2c(=S)cc(-c3ccc(Cl)cc3)oc2c1O`, which Activity is on record?
The Activity was “Active”.

For `O=c1cc(-c2ccc(Cl)cc2)oc2c(O)c(O)ccc12`, which Activity is on record?
Its Activity is “Active”.

For `N#Cc1ccc(-c2cc(=S)c3ccc(O)c(O)c3o2)cc1`, which Activity is on record?
Its Activity is “Active”.

system: not listed separately; test: Neuroprotective activity against H2O2-induced oxidative stress in human SH-SY5Y cells assessed as cell viability at 3 uM preincubated for 24 hrs followed by H2O2 addition for 1 hr measured after 17 hrs by MTT assay relative to control; format: functional; conditions: read-out: Activity

Which viability at 3 µM does the source give for `O=c1cc(-c2cccs2)oc2c(O)c(O)ccc12` here?
The viability at 3 µM was less than 60%.

With `Oc1ccc2c(=S)cc(-c3ccc(Br)cc3)oc2c1O` as the compound, how does the viability at 3 µM read?
The viability at 3 µM was 97.8%.

With `O=c1cc(-c2ccccc2)oc2c(O)c(O)ccc12` [7,8-DIHYDROXYFLAVONE] as the compound, how does the viability at 3 µM read?
The viability at 3 µM was 96.2 to 97%.

For `Oc1cc(O)c2c(=S)cc(-c3ccc(O)c(O)c3)oc2c1`, which viability at 3 µM is on record?
The viability at 3 µM was 67.4 to 73%.

For `O=c1cc(-c2ccc(F)cc2)oc2c(O)c(O)ccc12`, which viability at 3 µM is on record?
Its viability at 3 µM is 88.8%.

Which viability at 3 µM does the source give for `O=c1cc(-c2ccccc2)oc2cc(O)cc(O)c12` [CHRYSIN] here?
Its viability at 3 µM is less than 50%.

Which viability at 3 µM does the source give for `Oc1ccc2c(=S)cc(-c3ccc(Cl)cc3)oc2c1O` here?
Its viability at 3 µM is 107%.

With `Oc1cc(O)c2c(=S)cc(-c3ccccc3)oc2c1` as the compound, how does the viability at 3 µM read?
Its viability at 3 µM is less than 50%.

For `O=c1cc(-c2ccc(Cl)cc2)oc2c(O)c(O)ccc12`, which viability at 3 µM is on record?
Its viability at 3 µM is 93.4%.

Which viability at 3 µM does the source give for `O=c1cc(-c2cccnc2)oc2c(O)c(O)ccc12` here?
Its viability at 3 µM is less than 60%.

Which viability at 3 µM does the source give for `O=c1cc(-c2ccco2)oc2c(O)c(O)ccc12` here?
Its viability at 3 µM is less than 60%.

Which viability at 3 µM does the source give for `N#Cc1ccc(-c2cc(=S)c3ccc(O)c(O)c3o2)cc1` here?
Its viability at 3 µM is 106%.

Which viability at 3 µM does the source give for `Oc1ccc2c(=S)cc(-c3ccco3)oc2c1O` here?
Its viability at 3 µM is less than 60%.

Which viability at 3 µM does the source give for `Oc1ccc2c(=S)cc(-c3cccs3)oc2c1O` here?
Its viability at 3 µM is less than 60%.

Which viability at 3 µM does the source give for `Oc1ccc2c(=S)cc(-c3ccc(F)cc3)oc2c1O` here?
The viability at 3 µM was 97.4%.

For `Oc1ccc2c(=S)cc(-c3ccccc3)oc2c1O`, which viability at 3 µM is on record?
The viability at 3 µM was 72.4%.

Which viability at 3 µM does the source give for `Oc1ccc2c(=S)cc(-c3cccnc3)oc2c1O` here?
Its viability at 3 µM is less than 60%.

Which viability at 3 µM does the source give for `N#Cc1ccc(-c2cc(=O)c3ccc(O)c(O)c3o2)cc1` here?
The viability at 3 µM was 84.6%.

For `O=c1cc(-c2ccc(Br)cc2)oc2c(O)c(O)ccc12`, which viability at 3 µM is on record?
The viability at 3 µM was 84%.

With `O=c1cc(-c2ccc(O)c(O)c2)oc2cc(O)cc(O)c12` [LUTEOLIN] as the compound, how does the viability at 3 µM read?
The viability at 3 µM was 98.3%.
